# Source: ChEMBL document CHEMBL1201862, “PubChem BioAssay data set” (2004)
# The source made the active and inactive calls.
# Legend:
# [1] = target: T1, Methionyl-tRNA synthetase, putative (Trypanosoma brucei brucei, UniProt Q38C91); assay type: functional, Trypanosoma brucei brucei strain 927/4 GUTat10.1
# T1 sequence (Q38C91 whole entry): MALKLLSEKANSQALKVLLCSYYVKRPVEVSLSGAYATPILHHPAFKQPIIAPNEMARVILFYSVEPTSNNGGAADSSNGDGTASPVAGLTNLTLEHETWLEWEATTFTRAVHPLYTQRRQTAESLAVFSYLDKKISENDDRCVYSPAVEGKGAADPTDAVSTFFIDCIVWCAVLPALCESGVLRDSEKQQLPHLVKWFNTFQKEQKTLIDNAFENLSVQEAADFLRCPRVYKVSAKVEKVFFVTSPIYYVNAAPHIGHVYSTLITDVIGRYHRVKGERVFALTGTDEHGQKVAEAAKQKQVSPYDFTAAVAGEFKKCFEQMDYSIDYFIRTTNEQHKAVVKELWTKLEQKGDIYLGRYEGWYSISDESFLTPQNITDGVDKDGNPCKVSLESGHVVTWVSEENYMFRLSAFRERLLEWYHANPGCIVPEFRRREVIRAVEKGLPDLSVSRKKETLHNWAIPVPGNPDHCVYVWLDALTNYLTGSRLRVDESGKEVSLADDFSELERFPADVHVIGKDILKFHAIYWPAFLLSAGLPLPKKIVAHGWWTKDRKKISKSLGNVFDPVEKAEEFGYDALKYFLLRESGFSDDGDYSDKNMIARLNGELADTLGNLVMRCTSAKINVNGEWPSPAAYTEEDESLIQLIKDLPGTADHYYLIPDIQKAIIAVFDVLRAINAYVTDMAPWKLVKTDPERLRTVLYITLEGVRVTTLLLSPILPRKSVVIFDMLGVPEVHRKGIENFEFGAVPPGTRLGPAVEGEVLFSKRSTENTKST
# [2] = Counterscreen for inhibitors of Trypanosoma brucei methionyl tRNA synthetase (MetRS): Luminescence-based cell-based high throughput dose response assay to identify compounds that are cytotoxic to Jurkat human T lymphocyte cells.; assay type: functional
# [3] = target: T1, Methionyl-tRNA synthetase, putative; assay type: functional, Trypanosoma brucei brucei strain 927/4 GUTat10.1; remark: listed apart in the source
# [4] = Late stage counterscreen for inhibitors of Trypanosoma brucei methionyl tRNA synthetase (MetRS): Luminescence-based cell-based high throughput dose response assay to identify compounds that are cytotoxic to Jurkat human T lymphocyte cells.; assay type: functional
# [5] = cells; assay type: functional, cell-based
# [6] = target: T2, Trace amine-associated receptor 1 (Homo sapiens, UniProt Q96RJ0); test: Fluorescence-based cell-based high throughput dose response assay to identify agonists of the human trace amine associated receptor 1 (TAAR1).; assay type: functional
# [7] = target: T2, Trace amine-associated receptor 1; test: Counterscreen for agonists of the human trace amine associated receptor 1 (hTAAR1): Fluorescence-based cell-based high throughput dose response assay to identify hTAAR1 agonist that also desensitize TAAR1 receptor response.; assay type: functional
# [8] = cells; assay type: functional, cell-based; remark: listed apart in the source
# [9] = target: T3, Rac GTPase-activating protein 1 (Homo sapiens, UniProt Q9H0H5); test: blockers of MgcRacGAP-driven Rac1 GTP hydrolysis – biochemical, ADP Hunter fluorescence, primary and confirmatory, confirmation (AID 624330); assay type: functional
# T3 sequence (Q9H0H5 whole entry): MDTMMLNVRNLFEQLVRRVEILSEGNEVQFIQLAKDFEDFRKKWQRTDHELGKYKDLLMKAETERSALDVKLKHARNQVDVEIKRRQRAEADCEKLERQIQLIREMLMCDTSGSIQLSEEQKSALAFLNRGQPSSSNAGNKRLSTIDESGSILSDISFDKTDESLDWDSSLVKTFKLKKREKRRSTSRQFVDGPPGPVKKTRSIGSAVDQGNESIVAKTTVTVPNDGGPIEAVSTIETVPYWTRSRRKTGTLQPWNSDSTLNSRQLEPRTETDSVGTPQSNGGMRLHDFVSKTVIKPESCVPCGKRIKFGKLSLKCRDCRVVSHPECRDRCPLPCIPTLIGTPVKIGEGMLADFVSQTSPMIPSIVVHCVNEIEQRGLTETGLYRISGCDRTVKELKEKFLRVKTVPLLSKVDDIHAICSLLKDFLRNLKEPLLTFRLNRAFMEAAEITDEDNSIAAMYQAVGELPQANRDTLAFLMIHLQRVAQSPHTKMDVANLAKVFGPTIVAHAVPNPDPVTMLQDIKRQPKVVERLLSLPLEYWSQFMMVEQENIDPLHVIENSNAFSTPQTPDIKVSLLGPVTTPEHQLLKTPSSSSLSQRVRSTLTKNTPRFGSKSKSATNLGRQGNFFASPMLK
# [10] = target: SWI/SNF-related matrix-associated actin-dependent regulator of chromatin subfamily A member 2 (Homo sapiens, UniProt P51531); test: Luminescence-based cell-based high throughput dose response assay to identify activators of the function of SWI/SNF related, matrix associated, actin dependent regulator of chromatin, subfamily a, member 2 (SMARCA2, BRM).; assay type: functional
# [11] = Counterscreen for activators of the function of SWI/SNF related, matrix associated, actin dependent regulator of chromatin, subfamily a, member 2 (SMARCA2, BRM): Luminescence-based cell-based high throughput dose response assay to identify non-selective compounds using the VP16 reporter assay.; assay type: functional
# [12] = A cytotoxicity screen of small molecule inhibitors of the PhoP region in Salmonella typhi identified in the primary screen. [Related pubchem assays: 1850, 1864, 1985 ]; assay type: functional
# [13] = target: Prothrombin (Homo sapiens, UniProt P00734); test: Thrombin 1536 HTS Dose Response Confirmation. [Related pubchem assays: 1046 (Thrombin 1536 HTS; hits were confirmed in this assay)]; assay type: functional
# [14] = target: T4, Polyadenylate-binding protein 1 (Homo sapiens, UniProt P11940); test: MLLE binding blockers, Cy5 peptide tracer – biochemical, fluorescence polarization, Cy5-PAM2 peptide, secondary, miRNA deadenylation inhibitor project, dose response (AID 602260); assay type: functional; settings: read-out: IC50_Mean
# [15] = target: T4, Polyadenylate-binding protein 1; test: MLLE domain peptide-binding blockers, IC50 – biochemical, fluorescence polarization, FITC-PAM2 peptide, dose response (AID 602259); assay type: functional; settings: read-out: IC50_Mean
# [16] = target: Fructose-bisphosphate aldolase (Mycobacterium tuberculosis, UniProt P9WQA3); test: Fluorescence-based biochemical high throughput dose response assay for inhibitors of the fructose-bisphosphate aldolase (FBA) of M. tuberculosis.; assay type: functional
# [17] = target: Protein disulfide-isomerase (Homo sapiens, UniProt P07237); test: inhibition of PDI-mediated insulin reduction – biochemical, turbidity, dry powder samples, set 2, confirmation (AID 652146)
# [18] = target: Disintegrin and metalloproteinase domain-containing protein 17 (Homo sapiens, UniProt P78536); test: exosite inhibitors of ADAM17, dose response, biochemical (AID 743260)
# [19] = inhibition of ADAM10 peptide cleavage – biochemical, FRET peptide substrate, recombinant human ADAM10, selectivity assay for ADAM17 exosite inhibitor project, dose response (AID 743259);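 further: ADAM10 enzyme cleaving a FRET peptide substrate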
# [20] = viability loss in HepG2 liver cells – cell-based, ATP luminescence, cherry-pick, set 6, cytotoxicity control, dose response (AID 1053125); assay type: functional
# [21] = cells; settings: A549
# [22] = cells; settings: HEK293
# [23] = target: Paired box protein Pax-8 (Homo sapiens, UniProt Q06710); test: PAX8 transcriptional activity inhibition in RMG-I – RMG-I cells, luciferase, cherry-pick, dose response (AID 687027); assay type: functional, cell-based;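 further: luciferase reporter driven by Pax8 target thyroperoxidase promoter measured by SteadyGlo luminescence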
# [24] = inhibitors acting on PAX2 in cells – cell-based, plate reader, dry powder samples, selectivity assay for PAX8 inhibitor project, dose response (AID 743048); assay type: functional;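 further: HEK293 cells carrying a WT1 promoter luciferase reporter driven by expressed Pax2; potency is for inhibition of Pax2 driven reporter signal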
# [25] = CMV-driven luciferase expression suppression in HEK293 – cell-based, luminescence, dry powder, counter-screen for Pax8 inhibitor project, dose response (AID 743020); assay type: functional
# [26] = OVCAR-3 cell viability loss – plate reader, dry powder samples, PAX8 inhibitor project, dose response (AID 743044); assay type: functional, cell-based
# [27] = PAX5 cellular inhibition readout – cell-based, plate reader, dry powder samples, selectivity assay for PAX8 inhibitor project, dose response (AID 743047); assay type: functional;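 further: HEK293 cells carrying a Pax5 driven CD19 promoter luciferase reporter; potency of inhibitors that lower reporter luminescence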
# [28] = OVCAR4 cell viability loss – plate reader, dry powder, SA11, cytotoxicity control for PAX8 inhibitor project, dose response (AID 743150); assay type: functional, cell-based; settings: OVCAR-4
# [29] = COV434 cell viability loss – plate reader, dry powder, SA7, cytotoxicity control for PAX8 inhibitor project, dose response (AID 743145); assay type: functional, cell-based
# [30] = general cell-killing toxicity readout – plate reader, dry powder samples, cytotoxicity control for PAX8 inhibitor project, dose response (AID 743021); assay type: functional, cell-based
# [31] = OVCAR8 cell viability loss – plate reader, dry powder samples, PAX8 project, dose response (AID 743197); assay type: functional, cell-based; settings: OVCAR-8
# [32] = PAX8-dependent cell viability loss – plate reader, dry powder, dose response (AID 743049); assay type: functional, cell-based
# [33] = rescue of ΔF508 CFTR function, airway epithelium – human bronchial epithelial cells, plate reader, cherry-pick, two tests, dose response (AID 743267); assay type: functional, cell-based
# T2 sequence (Q96RJ0 whole entry): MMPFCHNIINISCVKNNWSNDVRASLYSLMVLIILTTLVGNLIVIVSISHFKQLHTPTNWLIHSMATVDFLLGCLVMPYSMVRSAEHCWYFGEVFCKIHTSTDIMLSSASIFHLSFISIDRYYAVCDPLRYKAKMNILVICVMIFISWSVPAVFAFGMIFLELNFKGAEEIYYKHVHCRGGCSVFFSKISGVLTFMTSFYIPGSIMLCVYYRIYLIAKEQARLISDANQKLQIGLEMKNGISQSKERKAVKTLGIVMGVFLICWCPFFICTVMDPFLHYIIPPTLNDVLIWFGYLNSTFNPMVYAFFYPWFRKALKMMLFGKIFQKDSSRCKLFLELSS
# T4 sequence (P11940 whole entry, the tested form may be a part): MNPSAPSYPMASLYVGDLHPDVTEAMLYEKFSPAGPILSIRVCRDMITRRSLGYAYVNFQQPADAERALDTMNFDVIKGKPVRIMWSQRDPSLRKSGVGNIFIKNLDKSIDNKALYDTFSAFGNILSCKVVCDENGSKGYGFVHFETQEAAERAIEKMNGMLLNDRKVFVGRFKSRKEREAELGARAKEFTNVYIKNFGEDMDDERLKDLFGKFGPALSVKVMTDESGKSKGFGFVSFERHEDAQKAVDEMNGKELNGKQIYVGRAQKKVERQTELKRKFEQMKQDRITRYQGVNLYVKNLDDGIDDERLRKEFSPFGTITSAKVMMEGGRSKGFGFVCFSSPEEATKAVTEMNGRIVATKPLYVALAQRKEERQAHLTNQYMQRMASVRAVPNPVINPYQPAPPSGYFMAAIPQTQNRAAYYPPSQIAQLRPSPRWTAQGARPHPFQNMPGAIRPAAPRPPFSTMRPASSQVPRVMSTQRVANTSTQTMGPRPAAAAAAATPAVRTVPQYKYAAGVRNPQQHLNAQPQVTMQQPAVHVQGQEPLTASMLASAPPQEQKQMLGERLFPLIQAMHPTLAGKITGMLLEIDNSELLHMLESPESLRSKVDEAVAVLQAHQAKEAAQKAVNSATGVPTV
# Chain of Fructose-bisphosphate aldolase (P9WQA3 whole entry): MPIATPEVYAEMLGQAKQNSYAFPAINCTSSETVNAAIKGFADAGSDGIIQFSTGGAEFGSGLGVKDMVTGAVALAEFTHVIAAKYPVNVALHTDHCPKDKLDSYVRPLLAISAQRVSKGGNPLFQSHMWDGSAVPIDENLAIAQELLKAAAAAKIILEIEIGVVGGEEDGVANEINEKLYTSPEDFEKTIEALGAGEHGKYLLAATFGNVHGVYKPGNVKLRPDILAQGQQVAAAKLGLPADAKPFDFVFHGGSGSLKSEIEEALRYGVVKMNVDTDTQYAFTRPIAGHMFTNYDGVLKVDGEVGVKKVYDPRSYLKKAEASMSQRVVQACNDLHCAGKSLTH
# Chain of Disintegrin and metalloproteinase domain-containing protein 17 (P78536 whole entry, the tested form may be a part): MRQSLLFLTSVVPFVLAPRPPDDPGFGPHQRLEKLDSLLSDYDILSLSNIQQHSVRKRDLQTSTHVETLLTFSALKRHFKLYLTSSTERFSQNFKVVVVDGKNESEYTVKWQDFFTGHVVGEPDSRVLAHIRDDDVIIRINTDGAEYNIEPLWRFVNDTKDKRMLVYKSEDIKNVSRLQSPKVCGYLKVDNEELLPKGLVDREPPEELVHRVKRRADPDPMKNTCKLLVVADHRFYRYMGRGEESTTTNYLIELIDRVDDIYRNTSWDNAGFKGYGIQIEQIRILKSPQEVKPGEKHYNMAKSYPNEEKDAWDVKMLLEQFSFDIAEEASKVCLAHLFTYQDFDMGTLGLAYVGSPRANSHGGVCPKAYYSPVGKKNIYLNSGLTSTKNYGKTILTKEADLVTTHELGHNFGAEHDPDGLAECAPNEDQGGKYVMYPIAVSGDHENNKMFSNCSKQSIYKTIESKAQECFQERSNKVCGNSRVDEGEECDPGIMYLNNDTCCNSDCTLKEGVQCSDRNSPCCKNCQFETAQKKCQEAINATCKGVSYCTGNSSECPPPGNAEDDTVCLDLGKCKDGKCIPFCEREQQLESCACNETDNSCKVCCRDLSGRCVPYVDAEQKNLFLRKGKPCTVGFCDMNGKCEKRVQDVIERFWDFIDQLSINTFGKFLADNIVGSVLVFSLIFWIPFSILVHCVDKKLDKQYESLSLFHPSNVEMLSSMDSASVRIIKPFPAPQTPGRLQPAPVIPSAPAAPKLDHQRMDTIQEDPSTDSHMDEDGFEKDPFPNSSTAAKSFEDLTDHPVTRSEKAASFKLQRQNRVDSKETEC
# Chain of Protein disulfide-isomerase (P07237 whole entry, the tested form may be a part): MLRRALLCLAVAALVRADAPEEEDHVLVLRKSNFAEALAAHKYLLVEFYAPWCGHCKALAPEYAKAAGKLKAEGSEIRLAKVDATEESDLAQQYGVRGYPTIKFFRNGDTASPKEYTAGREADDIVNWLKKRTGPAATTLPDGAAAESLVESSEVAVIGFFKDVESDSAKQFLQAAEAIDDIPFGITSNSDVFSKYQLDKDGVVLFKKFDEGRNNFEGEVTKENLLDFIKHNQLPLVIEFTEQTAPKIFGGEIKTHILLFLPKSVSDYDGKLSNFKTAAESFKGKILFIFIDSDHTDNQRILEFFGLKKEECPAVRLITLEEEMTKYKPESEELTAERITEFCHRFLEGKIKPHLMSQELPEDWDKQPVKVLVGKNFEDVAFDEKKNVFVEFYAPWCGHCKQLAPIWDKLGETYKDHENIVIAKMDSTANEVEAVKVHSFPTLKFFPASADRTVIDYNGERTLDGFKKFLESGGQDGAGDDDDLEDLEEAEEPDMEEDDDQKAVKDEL
# Chain of Paired box protein Pax-8 (Q06710 whole entry): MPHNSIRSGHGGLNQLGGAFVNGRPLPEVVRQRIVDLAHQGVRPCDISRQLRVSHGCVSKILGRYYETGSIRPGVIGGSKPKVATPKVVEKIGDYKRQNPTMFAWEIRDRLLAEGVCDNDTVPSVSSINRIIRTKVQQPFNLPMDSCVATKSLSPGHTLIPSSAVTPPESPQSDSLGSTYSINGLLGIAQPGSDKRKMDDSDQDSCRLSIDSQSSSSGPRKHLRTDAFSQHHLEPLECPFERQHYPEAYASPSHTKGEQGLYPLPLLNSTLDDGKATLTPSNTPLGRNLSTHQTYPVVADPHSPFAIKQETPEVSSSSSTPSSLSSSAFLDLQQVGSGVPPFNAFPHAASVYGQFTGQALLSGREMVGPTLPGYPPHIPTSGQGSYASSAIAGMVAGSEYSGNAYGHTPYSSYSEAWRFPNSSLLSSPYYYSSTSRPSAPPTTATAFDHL
# Chain of SWI/SNF-related matrix-associated actin-dependent regulator of chromatin subfamily A member 2 (P51531 whole entry): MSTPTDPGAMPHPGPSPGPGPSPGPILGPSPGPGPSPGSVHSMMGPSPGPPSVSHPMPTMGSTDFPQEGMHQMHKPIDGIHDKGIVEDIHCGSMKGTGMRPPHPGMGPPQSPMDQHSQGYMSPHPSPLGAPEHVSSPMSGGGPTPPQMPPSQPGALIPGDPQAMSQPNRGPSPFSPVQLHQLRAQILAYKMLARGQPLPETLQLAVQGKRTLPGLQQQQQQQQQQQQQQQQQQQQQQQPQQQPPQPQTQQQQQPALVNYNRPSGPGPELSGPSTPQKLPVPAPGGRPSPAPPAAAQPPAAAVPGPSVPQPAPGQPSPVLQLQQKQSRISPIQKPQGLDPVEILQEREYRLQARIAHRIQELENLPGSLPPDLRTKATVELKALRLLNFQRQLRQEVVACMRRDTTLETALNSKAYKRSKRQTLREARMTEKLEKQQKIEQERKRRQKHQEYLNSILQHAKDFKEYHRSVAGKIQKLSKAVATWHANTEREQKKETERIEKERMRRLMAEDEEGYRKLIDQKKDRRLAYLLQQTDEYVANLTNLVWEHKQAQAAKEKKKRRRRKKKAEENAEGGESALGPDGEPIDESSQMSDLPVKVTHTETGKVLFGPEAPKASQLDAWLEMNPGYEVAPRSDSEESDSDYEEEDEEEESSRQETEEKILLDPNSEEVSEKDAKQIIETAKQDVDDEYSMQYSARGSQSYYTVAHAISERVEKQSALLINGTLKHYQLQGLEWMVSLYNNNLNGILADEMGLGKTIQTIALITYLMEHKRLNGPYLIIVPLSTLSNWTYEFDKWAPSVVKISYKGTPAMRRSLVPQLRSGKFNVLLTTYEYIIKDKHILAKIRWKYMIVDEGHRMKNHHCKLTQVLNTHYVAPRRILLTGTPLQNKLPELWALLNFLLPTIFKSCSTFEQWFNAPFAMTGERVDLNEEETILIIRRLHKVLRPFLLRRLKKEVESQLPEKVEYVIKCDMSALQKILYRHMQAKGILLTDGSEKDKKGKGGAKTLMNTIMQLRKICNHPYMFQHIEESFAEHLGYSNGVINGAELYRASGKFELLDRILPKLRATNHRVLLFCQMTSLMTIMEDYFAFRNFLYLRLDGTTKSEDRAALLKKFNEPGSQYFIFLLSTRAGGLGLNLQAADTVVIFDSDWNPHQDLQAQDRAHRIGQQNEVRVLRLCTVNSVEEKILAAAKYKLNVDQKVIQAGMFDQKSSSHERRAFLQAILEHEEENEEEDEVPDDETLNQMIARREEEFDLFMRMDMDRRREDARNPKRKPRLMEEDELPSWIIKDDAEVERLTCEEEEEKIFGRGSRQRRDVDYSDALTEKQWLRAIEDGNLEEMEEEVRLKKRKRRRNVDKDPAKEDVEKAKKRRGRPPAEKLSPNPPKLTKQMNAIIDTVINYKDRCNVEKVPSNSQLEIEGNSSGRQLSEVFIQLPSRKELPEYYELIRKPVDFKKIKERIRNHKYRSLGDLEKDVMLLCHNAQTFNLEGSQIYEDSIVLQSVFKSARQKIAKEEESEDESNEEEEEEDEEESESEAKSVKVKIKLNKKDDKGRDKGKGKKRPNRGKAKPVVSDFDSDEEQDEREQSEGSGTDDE
compound,measurement,setting,value
CC(C)(C)[C@H]1C=C(C(=O)NCc2nc3ccccc3[nH]2)O[C@@H](OCc2ccc(CO)cc2)C1,IC50,[1],3.78 µM (active)
same,IC50,[2],44.2 µM (inactive)
same,IC50,[3],1.99 µM (active)
same,IC50,[4],77 µM (inactive)
CC(C)[C@H](NC(=O)c1ccccc1)C(=O)N1CCC[C@H]1C(=O)NCCc1ccccc1Cl,IC50,[5],> 29.9 µM (inactive)
same,EC50,[6],0.754 µM (active)
same,IC50,[7],1.2 µM (active)
same,EC50,[8],> 29.9 µM (inactive)
Nc1ccc2c(c1)C(=O)c1cc(N)c(Cl)cc1-2,IC50,[9],22.1 µM (active)
same,EC50,[10],> 91.2 µM (inactive)
same,EC50,[11],> 91.2 µM (inactive)
O=C(CSc1nc2ccccc2o1)c1cc2ccccc2oc1=O,EC50,[12],> 50 µM (active)
same,IC50,[13],> 50 µM (inconclusive)
same,IC50,[14],> 66 µM (inactive)
same,IC50,[15],> 66 µM (inactive)
same,IC50,[16],> 10 µM (inactive)
C=CCOc1ccc(CN2CCC(CCOc3ccccc3)(C(=O)N(C)CC)CC2)cc1Cl,AC50,[17],> 30 µM (inactive)
Cc1cc(C)n(CCc2nc(-c3ccc(C(C)(C)C)cc3)cs2)n1,IC50,[18],> 69.5 µM (inactive)
same,IC50,[19],36.5 µM (inactive)
O=C(NCc1cc(C(F)(F)F)ccc1Cl)c1cccc2c1C(=O)c1ccc(Cl)cc1S2(=O)=O,AC50,[20],> 52 µM (inactive)
same,AC50,[21],37.6 µM (active)
same,AC50,[22],> 52 µM (inactive)
Cc1ccc(S(=O)(=O)Nc2ccc3c(c2)C(=O)N([C@H](C)CO)C[C@@H](C)[C@H](CN(C)Cc2ccc(C(F)(F)F)cc2)OCCCC[C@H](C)O3)cc1,AC50,[23],3.93 µM (active)
same,AC50,[24],22 µM (active)
same,AC50,[25],29.4 µM (active)
same,AC50,[26],27 µM (active)
same,AC50,[27],22.1 µM (active)
same,AC50,[28],44.2 µM (active)
same,AC50,[29],35.5 µM (active)
same,AC50,[30],31 µM (active)
same,AC50,[31],14.9 µM (active)
same,AC50,[32],39.7 µM (active)
COc1c(O[C@@H]2O[C@H](CO)[C@@H](O)[C@H](O)[C@H]2O)cc2c(c1OC)-c1ccc(SC)c(=O)cc1[C@@H](NC(C)=O)CC2 [THIOCOLCHICOSIDE],AC50,[33],50 µM (active)
